Measurements as given in patent publication US7323166B2, “Lactic acid bacteria cultures that inhibit food-borne pathogens” (Board of Regents University of Nebraska, priority 2002, dated 2008).

System: cattle isolates
Test: Test of antibiotic resistance in cattle isolates towards various antibiotics (share of isolates per category)
Assay type: cell-based, lactic acid bacteria (LAB)
Conditions: share of the 19 cattle isolates
Source text: The following are examples of types of drugs that would be included in the three categories: Category I: quinolones, vancomycin, dalfopristin/quinupristin, third generation cephalosporins; Category II: ampicillin, first and second generation cephalosporins, erythromycin, trimethoprim/sulfamethoxazole; and Category III: inophores (monensin) and polymixins (Polymixin B and colistin). […] A commercial antimicrobial susceptibility test kit-Etest (AB Biodisk, North America Inc., Piscatway, N.J.) was used to determine the minimum inhibitory concentrations (MIC) of the antibiotics for the isolates selected. Etest strips containing a predefined exponential gradient of a particular antibiotic were applied to agar plates containing Mueller Hinton Agar (Difco) pre-inoculated with an overnight culture of the given bacteria (inoculum of 0.5 McFarland turbidity in 0.85% NaCl). The agar plates with the strips were immediately incubated at 37° C. for 16-20 hours, when bacterial growth became distinctly visible. After incubation, MIC values (μg/ml) were read where the inhibition ellipse (centered along the strip) intersected the scale at the edge of the strip. The susceptibility categorization of organisms towards a specific antibiotic was provided in the Etest antibiotic supplements for each agent and was used to examine the susceptibility of lactic acid bacteria (LAB) isolates. Based on the categorization, MIC for a particular organism was reported as susceptible (S), intermediate (I), or resistant (R). When growth occurred along the entire strip, i.e. no inhibition ellipse was seen, the MIC was reported as greater than (>H) the highest value on the reading scale.

| SMILES | % Intermediate [%] | % Resistant [%] | % Susceptible [%] | % Resistant (listed as grepafloxacin) [%] |
| --- | --- | --- | --- | --- |
| CN(C)[C@@H]1C(O)=C(C(N)=O)C(=O)[C@@]2(O)C(O)=C3C(=O)c4c(O)cccc4[C@@](C)(O)[C@H]3C[C@@H]12 [TC, Tetracycline] | 0.0 | 31.0 | 69.0 |  |
| CC1(C)S[C@@H]2[C@H](NC(=O)[C@H](N)c3ccccc3)C(=O)N2[C@H]1C(=O)O [AM, Ampicillin] | 0.0 | 10.0 | 90.0 |  |
| CC[C@H]1OC(=O)[C@H](C)[C@@H](O[C@H]2C[C@@](C)(OC)[C@@H](O)[C@H](C)O2)[C@H](C)[C@@H](O[C@@H]2O[C@H](C)C[C@H](N(C)C)[C@H]2O)[C@](C)(O)C[C@@H](C)C(=O)[C@H](C)[C@@H](O)[C@]1(C)O [EM, Erythromycin] | 5.0 | 21.0 | 74.0 |  |
| C[C@H]1COc2c(N3CCN(C)CC3)c(F)cc3c(=O)c(C(=O)O)cn1c23 [LE, Levofloxacin] | 37.0 | 5.0 | 58.0 |  |
| Cc1c(F)c(N2CCNC(C)C2)cc2c1c(=O)c(C(=O)O)cn2C1CC1 (stereo not shown) [GP, Grepafloxacin] | 10.0 | 58.0 | 32.0 | 58 |
